The NIST ThermoML archive (doi:10.1016/j.fluid.2014.07.015)
Numbers after ± are expanded uncertainties.

Settings: 101.33 kPa, Liquid, Vibrating tube method

Structure (SMILES): CCCCn1cc[n+](C)c1C.O=S(=O)([N-]S(=O)(=O)C(F)(F)F)C(F)(F)F
- mass density (278.15 K): 1437.39 ± 0.29 kg/m3
- mass density (283.15 K): 1432.61 ± 0.28 kg/m3
- mass density (288.15 K): 1427.91 ± 0.28 kg/m3
- mass density (293.15 K): 1423.31 ± 0.28 kg/m3
- mass density (298.15 K): 1418.69 ± 0.28 kg/m3
- mass density (303.15 K): 1414.07 ± 0.28 kg/m3
- mass density (308.15 K): 1409.46 ± 0.28 kg/m3
- mass density (313.15 K): 1404.86 ± 0.27 kg/m3
- mass density (318.15 K): 1400.25 ± 0.27 kg/m3
- mass density (323.15 K): 1395.67 ± 0.27 kg/m3
- mass density (328.15 K): 1391.1 ± 0.27 kg/m3
- mass density (333.15 K): 1386.54 ± 0.27 kg/m3
- mass density (338.15 K): 1381.98 ± 0.27 kg/m3
- mass density (343.15 K): 1377.44 ± 0.27 kg/m3
- mass density (348.15 K): 1372.92 ± 0.26 kg/m3
- mass density (353.15 K): 1368.39 ± 0.26 kg/m3

Structure (SMILES): CCCC[P+](C)(CCCC)CCCC.O=S(=O)([N-]S(=O)(=O)C(F)(F)F)C(F)(F)F
- mass density (278.15 K): 1270.8 ± 1.4 kg/m3
- mass density (283.15 K): 1266.52 ± 1.4 kg/m3
- mass density (288.15 K): 1262.25 ± 1.4 kg/m3
- mass density (293.15 K): 1257.99 ± 1.4 kg/m3
- mass density (298.15 K): 1253.72 ± 1.4 kg/m3
- mass density (303.15 K): 1249.58 ± 1.4 kg/m3
- mass density (308.15 K): 1245.46 ± 1.4 kg/m3
- mass density (313.15 K): 1241.32 ± 1.4 kg/m3
- mass density (318.15 K): 1237.2 ± 1.4 kg/m3
- mass density (323.15 K): 1233.09 ± 1.4 kg/m3
- mass density (328.15 K): 1228.98 ± 1.4 kg/m3
- mass density (333.15 K): 1224.88 ± 1.3 kg/m3
- mass density (338.15 K): 1220.79 ± 1.3 kg/m3
- mass density (343.15 K): 1216.71 ± 1.3 kg/m3
- mass density (348.15 K): 1212.65 ± 1.3 kg/m3
- mass density (353.15 K): 1208.59 ± 1.3 kg/m3
